Assay results as given in patent publication US12338236B2, “Benzoisothiazole and benzoisoxazole compounds for the treatment of mental disorders” (SUVEN LIFE SCIENCES LIMITED, priority 2022, dated 2025).
Counter-ions that a name gives are not always drawn.

Test system: DOPA levels in striatum
Test: Reserpine-induced DOPA accumulation
Type: in vivo, Male Wistar rats
Conditions: rats, 3 mg/kg, p.o., 1.16 h before sacrifice, striatum
Experimental: Example-53: Reserpine-Induced DOPA Accumulation
Male Wistar rats were pretreated with reserpine (5 mg/kg, s.c.) approximately 18 h before sacrifice and were thereafter fasted until sacrifice. Example-2 (3 mg/kg, p.o.) and (3-(3-hydroxyphenyl)-N-n-propylpiperidine (3-PPP); 30 mg/kg, s.c.) were administered 1.16 h and 1 h, respectively before sacrifice. Haloperidol (0.5 mg/kg, s.c.) was used as a positive control and was dosed 10 min prior to 3-PPP in a separate group of animals. 3-Hydroxybenzylhydrazine dihydrochloride (NSD-1015; 100 mg/kg, s.c.) was then administered 0.5 h before sacrifice. Each rat was sacrificed, brain was removed and then striatum was isolated. The tissue was immediately weighed and homogenized in 0.1 N perchloric acid by means of an ultrasonic disruptor while being cooled in ice. The homogenate was centrifuged at 4° C. at 20,000 g for 15 min. The supernatant was assayed for dihydroxyphenylalanine (DOPA) levels using HPLC-ECD.

Cc1nnc(-c2csc(OCCCN3CCN(c4nsc5ccccc45)CC3)n2)o1 [Example-2, 3-(4-{3-[4-(5-Methyl-[1,3,4]oxadiazol-2-yl)-thiazol-2-yloxy]-propyl}-piperazin-1-yl)-benzo[d]isothiazole oxalate]
Blockade of the effects of 3-PPP on reserpine induced DOPA accumulation: 25%
